biological target: GABAA receptor ([35S]-TBPS binding, rat brain cortical membranes); test: Steroid inhibition of [35S]-TBPS binding (radioligand displacement); conditions: 3 nM [35S]-TBPS, in the presence of 5 μM GABA
Experimental: TBPS binding assays using rat brain cortical membranes in the presence of 5 μM GABA has been described (Gee et al, J. Pharmacol. Exp. Ther. 1987, 241, 346-353; Hawkinson et al, Mol. Pharmacol. 1994, 46, 977-985; Lewin, A. H et al., Mol. Pharmacol. 1989, 35, 189-194).
Briefly, cortices are rapidly removed following decapitation of carbon dioxide-anesthetized Sprague-Dawley rats (200-250 g). The cortices are homogenized in 10 volumes of ice-cold 0.32 M sucrose using a glass/teflon homogenizer and centrifuged at 1500×g for 10 min at 4° C. The resultant supernatants are centrifuged at 10,000×g for 20 min at 4° C. to obtain the P2 pellets. The P2 pellets are resuspended in 200 mM NaCl/50 mM Na—K phosphate pH 7.4 buffer and centrifuged at 10,000×g for 10 min at 4° C. This washing procedure is repeated twice and the pellets are resuspended in 10 volumes of buffer. Aliquots (100 μL) of the membrane suspensions are incubated with 3 nM [^35S]-TBPS and 5 μL aliquots of test drug dissolved in dimethyl sulfoxide (DMSO) (final 0.5%) in the presence of 5 μM GABA. The incubation is brought to a final volume of 1.0 mL with buffer. Nonspecific binding is determined in the presence of 2 μM unlabeled TBPS and ranged from 15 to 25%. Following a 90 min incubation at room temp, the assays are terminated by filtration through glass fiber filters (Schleicher and Schuell No. 32) using a cell harvester (Brandel) and rinsed three times with ice-cold buffer. Filter bound radioactivity is measured by liquid scintillation spectrometry. Non-linear curve fitting of the overall data for each drug averaged for each concentration is done using Prism (GraphPad). […] The concentration of test compound producing 50% inhibition (IC50) of specific binding and the maximal extent of inhibition (Imax) are determined for the individual experiments with the same model used for the overall data and then the means ±SEM.s of the individual experiments are calculated.
Various compounds are or can be screened to determine their potential as modulators of [^35S]-TBPS binding in vitro. These assays are or can be performed in accordance with the above discussed procedures.

SMILES | IC50 [nM]
COC[C@]12CC[C@@](C)(O)C[C@@H]1CC[C@H]1[C@@H]3CC[C@H](C(=O)Cn4cc5cc(F)ncc5n4)[C@@]3(C)CC[C@@H]12 [Compound 75] | 100 to 500
CCOC(=O)c1cn(CC(=O)[C@H]2CC[C@H]3[C@@H]4CC[C@H]5C[C@](C)(O)CC[C@]5(COC)[C@H]4CC[C@]23C)nn1 [Compound 80] | 100 to 500
COC[C@]12CC[C@@](C)(O)C[C@@H]1CC[C@H]1[C@@H]3CC[C@H](C(=O)Cn4ncc(C(=O)O)n4)[C@@]3(C)CC[C@@H]12 [Compound 81] | > 500
COC[C@]12CC[C@@](C)(O)C[C@@H]1CC[C@H]1[C@@H]3CC[C@H](C(=O)Cn4cc(C(=O)O)nn4)[C@@]3(C)CC[C@@H]12 [Compound 82] | > 500
COC[C@]12CC[C@@](C)(O)C[C@@H]1CC[C@H]1[C@@H]3CC[C@H](C(=O)Cn4ncc(C(N)=O)n4)[C@@]3(C)CC[C@@H]12 [Compound 83] | 100 to 500
COC[C@]12CC[C@@](C)(O)C[C@@H]1CC[C@H]1[C@@H]3CC[C@H](C(=O)Cn4ncc(CO)n4)[C@@]3(C)CC[C@@H]12 [Compound 85] | > 500
